Measured values as given in ChEMBL document CHEMBL3286379, “Design and synthesis of pyrimidine molecules endowed with thiazolidin-4-one as new anticancer agents” (Eur J Med Chem, 2014).

Legend:
A549 = test: Growth inhibition of human A549/ATCC cells after 48 hrs by sulforhodamine B assay; format: functional; details: A549, 48 h
[1] = Growth inhibition of human BT549 cells after 48 hrs by sulforhodamine B assay; format: functional; details: BT-549, 48 h
MDA-MB-468 = test: Growth inhibition of human MDA-MB-468 cells after 48 hrs by sulforhodamine B assay; format: functional; details: MDA-MB-468, 48 h
[2] = Growth inhibition of human OVCAR5 cells after 48 hrs by sulforhodamine B assay; format: functional; details: OVCAR-5, 48 h
SK-MEL-28 = test: Growth inhibition of human SK-MEL-28 cells after 48 hrs by sulforhodamine B assay; format: functional; details: SK-MEL-28, 48 h
[3] = Growth inhibition of human OVCAR8 cells after 48 hrs by sulforhodamine B assay; format: functional; details: OVCAR-8, 48 h
TK-10 = test: Growth inhibition of human TK10 cells after 48 hrs by sulforhodamine B assay; format: functional; details: TK-10, 48 h
PC-3 = test: Growth inhibition of human PC3 cells after 48 hrs by sulforhodamine B assay; format: functional; details: PC-3, 48 h
[4] = Growth inhibition of human OVCAR3 cells after 48 hrs by sulforhodamine B assay; format: functional; details: OVCAR-3, 48 h
HOP-62 = test: Growth inhibition of human HOP62 cells after 48 hrs by sulforhodamine B assay; format: functional; details: HOP-62, 48 h
NCI-H460 = test: Growth inhibition of human NCI-H460 cells after 48 hrs by sulforhodamine B assay; format: functional; details: NCI-H460, 48 h
NCI-H522 = test: Growth inhibition of human NCI-H522 cells after 48 hrs by sulforhodamine B assay; format: functional; details: NCI-H522, 48 h
[5] = Growth inhibition of human NCI-ADR-RES cells after 48 hrs by sulforhodamine B assay; format: functional
KM12 = test: Growth inhibition of human KM12 cells after 48 hrs by sulforhodamine B assay; format: functional; details: KM12, 48 h
[6] = Growth inhibition of human Hs 578T cells after 48 hrs by sulforhodamine B assay; format: functional
Rattus norvegicus = test: Hepatotoxicity in rat assessed as SGPT level at 0.12 mg/kg, po after 12 days (reference value: 31.17 +/- 0.39 U/mL); format: toxicity, organism-based; parameters: dose 0.12 mg/kg, route oral; details: in vivo, 288 h
MDA-MB-435 = test: Growth inhibition of human MDA-MB-435 cells after 48 hrs by sulforhodamine B assay; format: functional; details: MDA-MB-435, 48 h
[7] = Growth inhibition of human UACC62 cells after 48 hrs by sulforhodamine B assay; format: functional; details: UACC-62, 48 h
[8] = Growth inhibition of human MOLT4 cells after 48 hrs by sulforhodamine B assay; format: functional; details: MOLT-4, 48 h
K562 = test: Growth inhibition of human K562 cells after 48 hrs by sulforhodamine B assay; format: functional; details: K562, 48 h
M14 = test: Growth inhibition of human M14 cells after 48 hrs by sulforhodamine B assay; format: functional; details: M14, 48 h
[9] = read-out: LC50 (the source's name)
[10] = read-out: pLC50 (the source's name) (converted)

Compound: Nc1nc(-c2ccccc2Cl)cc(-c2ccc(Cl)cc2Cl)n1
- GI50 (A549; read-out: GI50): 4.81 µM
- CC50 (A549; [9]): > 100 µM
- TGI (A549; read-out: TGI): > 100 µM
- GI50 (A549; read-out: pGI50 (converted)): 4.79 µM
- CC50 (A549; [10]): > 100 µM
- TGI (A549; read-out: pTGI): > 100 µM
- GI50 ([1]; read-out: GI50): 13.8 µM
- CC50 [1, 9]: > 100 µM
- TGI ([1]; read-out: TGI): > 100 µM
- GI50 ([1]; read-out: pGI50 (converted)): 13.8 µM
- CC50 [1, 10]: > 100 µM
- TGI ([1]; read-out: pTGI): > 100 µM
- GI50 (MDA-MB-468; read-out: GI50): 2180 nM
- CC50 (MDA-MB-468; [9]): > 100 µM
- TGI (MDA-MB-468; read-out: TGI): 8.66 µM
- GI50 (MDA-MB-468; read-out: pGI50 (converted)): 2190 nM
- CC50 (MDA-MB-468; [10]): > 100 µM
- TGI (MDA-MB-468; read-out: pTGI (converted)): 8.71 µM
- GI50 ([2]; read-out: GI50): 8.09 µM
- CC50 [2, 9]: > 100 µM
- TGI ([2]; read-out: TGI): > 100 µM
- GI50 ([2]; read-out: pGI50 (converted)): 8.13 µM
- CC50 [2, 10]: > 100 µM
- TGI ([2]; read-out: pTGI): > 100 µM
- GI50 (SK-MEL-28; read-out: GI50): 20.9 µM
- CC50 (SK-MEL-28; [9]): > 100 µM
- TGI (SK-MEL-28; read-out: TGI): > 100 µM
- GI50 (SK-MEL-28; read-out: pGI50 (converted)): 20.9 µM
- CC50 (SK-MEL-28; [10]): > 100 µM
- TGI (SK-MEL-28; read-out: pTGI): > 100 µM
- GI50 ([3]; read-out: GI50): 6.87 µM
- CC50 [3, 9]: > 100 µM
- TGI ([3]; read-out: TGI): > 100 µM
- GI50 ([3]; read-out: pGI50 (converted)): 6.92 µM
- CC50 [3, 10]: > 100 µM
- TGI ([3]; read-out: pTGI): > 100 µM
- GI50 (TK-10; read-out: GI50): 9.46 µM
- CC50 (TK-10; [9]): > 100 µM
- TGI (TK-10; read-out: TGI): 51 µM
- GI50 (TK-10; read-out: pGI50 (converted)): 9.55 µM
- CC50 (TK-10; [10]): > 100 µM
- TGI (TK-10; read-out: pTGI (converted)): 51.3 µM
- GI50 (PC-3; read-out: GI50): 5.43 µM
- CC50 (PC-3; [9]): > 100 µM
- TGI (PC-3; read-out: TGI): > 100 µM
- GI50 (PC-3; read-out: pGI50 (converted)): 5.37 µM
- CC50 (PC-3; [10]): > 100 µM
- TGI (PC-3; read-out: pTGI): > 100 µM
- GI50 ([4]; read-out: GI50): 4.05 µM
- CC50 [4, 9]: > 100 µM
- TGI ([4]; read-out: TGI): 20.7 µM
- GI50 ([4]; read-out: pGI50 (converted)): 4.07 µM
- CC50 [4, 10]: > 100 µM
- TGI ([4]; read-out: pTGI (converted)): 20.9 µM
- GI50 (HOP-62; read-out: GI50): 8.21 µM
- CC50 (HOP-62; [9]): > 100 µM
- TGI (HOP-62; read-out: TGI): > 100 µM
- GI50 (HOP-62; read-out: pGI50 (converted)): 8.13 µM
- CC50 (HOP-62; [10]): > 100 µM
- TGI (HOP-62; read-out: pTGI): > 100 µM
- GI50 (NCI-H460; read-out: GI50): 3.31 µM
- CC50 (NCI-H460; [9]): > 100 µM
- TGI (NCI-H460; read-out: TGI): 23.1 µM
- GI50 (NCI-H460; read-out: pGI50 (converted)): 3.31 µM
- CC50 (NCI-H460; [10]): > 100 µM
- TGI (NCI-H460; read-out: pTGI (converted)): 22.9 µM
- GI50 (NCI-H522; read-out: GI50): 3.27 µM
- CC50 (NCI-H522; [9]): > 100 µM
- TGI (NCI-H522; read-out: TGI): 23.3 µM
- GI50 (NCI-H522; read-out: pGI50 (converted)): 3.31 µM
- CC50 (NCI-H522; [10]): > 100 µM
- TGI (NCI-H522; read-out: pTGI (converted)): 23.4 µM
- GI50 ([5]; read-out: GI50): 14.8 µM
- CC50 [5, 9]: > 100 µM
- TGI ([5]; read-out: TGI): > 100 µM
- GI50 ([5]; read-out: pGI50 (converted)): 14.8 µM
- CC50 [5, 10]: > 100 µM
- TGI ([5]; read-out: pTGI): > 100 µM
- GI50 (KM12; read-out: GI50): 4.1 µM
- CC50 (KM12; [9]): > 100 µM
- TGI (KM12; read-out: TGI): 31.3 µM
- GI50 (KM12; read-out: pGI50 (converted)): 4.07 µM
- CC50 (KM12; [10]): > 100 µM
- TGI (KM12; read-out: pTGI (converted)): 30.9 µM
- GI50 ([6]; read-out: GI50): 6.04 µM
- CC50 [6, 9]: > 100 µM
- TGI ([6]; read-out: TGI): 60.7 µM
- GI50 ([6]; read-out: pGI50 (converted)): 6.03 µM
- CC50 [6, 10]: > 100 µM
- TGI ([6]; read-out: pTGI (converted)): 60.3 µM
- Activity (Rattus norvegicus): 29.11 U/ml
- GI50 (MDA-MB-435; read-out: GI50): 1970 nM
- CC50 (MDA-MB-435; [9]): > 100 µM
- TGI (MDA-MB-435; read-out: TGI): 4.93 µM
- GI50 (MDA-MB-435; read-out: pGI50 (converted)): 1950 nM
- CC50 (MDA-MB-435; [10]): > 100 µM
- TGI (MDA-MB-435; read-out: pTGI (converted)): 4.9 µM
- GI50 ([7]; read-out: GI50): 5.93 µM
- CC50 [7, 9]: > 100 µM
- TGI ([7]; read-out: TGI): 44.2 µM
- GI50 ([7]; read-out: pGI50 (converted)): 5.89 µM
- CC50 [7, 10]: > 100 µM
- TGI ([7]; read-out: pTGI (converted)): 44.7 µM
- GI50 ([8]; read-out: GI50): 4.82 µM
- CC50 [8, 9]: > 100 µM
- TGI ([8]; read-out: TGI): > 100 µM
- GI50 ([8]; read-out: pGI50 (converted)): 4.79 µM
- CC50 [8, 10]: > 100 µM
- TGI ([8]; read-out: pTGI): > 100 µM
- GI50 (K562; read-out: GI50): 3.97 µM
- CC50 (K562; [9]): > 100 µM
- TGI (K562; read-out: TGI): > 100 µM
- GI50 (K562; read-out: pGI50 (converted)): 3.98 µM
- CC50 (K562; [10]): > 100 µM
- TGI (K562; read-out: pTGI): > 100 µM
- GI50 (M14; read-out: GI50): 5.95 µM
- CC50 (M14; [9]): > 100 µM
- TGI (M14; read-out: TGI): > 100 µM
- GI50 (M14; read-out: pGI50 (converted)): 5.89 µM
- CC50 (M14; [10]): > 100 µM
- TGI (M14; read-out: pTGI): > 100 µM
